{"source": "ChEMBL document CHEMBL1667745", "about": "“Synthesis and antibacterial evaluation of novel clarithromycin derivatives with C-4″ elongated arylalkyl groups against macrolide-resistant strains” (2011)", "assay_type_in_all_cases": "functional", "key": {"Streptococcus pneumoniae [1]": {"test_system": "Streptococcus pneumoniae", "experiment": "Antimicrobial activity against erythromycin-susceptible Streptococcus pneumoniae ATCC 49619 by broth microdilution method"}, "Streptococcus pneumoniae [2]": {"test_system": "Streptococcus pneumoniae", "experiment": "Antimicrobial activity against erythromycin-resistant Streptococcus pneumoniae B1 expressing the erm gene by broth microdilution method"}, "Streptococcus pneumoniae [3]": {"test_system": "Streptococcus pneumoniae", "experiment": "Antimicrobial activity against erythromycin-resistant Streptococcus pneumoniae A22072 expressing the mef gene by broth microdilution method"}, "Streptococcus pneumoniae [4]": {"test_system": "Streptococcus pneumoniae", "experiment": "Antimicrobial activity against erythromycin-resistant Streptococcus pneumoniae AB11 expressing the erm and mef gene by broth microdilution method"}, "Staphylococcus aureus [5]": {"test_system": "Staphylococcus aureus", "experiment": "Antimicrobial activity against erythromycin-susceptible Staphylococcus aureus ATCC 25923 by broth microdilution method"}, "Staphylococcus aureus [6]": {"test_system": "Staphylococcus aureus", "experiment": "Antimicrobial activity against penicillin-susceptible Staphylococcus aureus P1 by broth microdilution method"}, "Streptococcus pyogenes [7]": {"test_system": "Streptococcus pyogenes", "experiment": "Antimicrobial activity against erythromycin-susceptible Streptococcus pyogenes S2 by broth microdilution method"}, "Streptococcus pyogenes [8]": {"test_system": "Streptococcus pyogenes", "experiment": "Antimicrobial activity against erythromycin-resistant Streptococcus pyogenes R2 by broth microdilution method"}}, "data": [{"smiles": "CC[C@H]1OC(=O)[C@H](C)[C@@H](O[C@H]2C[C@@](C)(OC)[C@@H](OC(=O)NCCCC(=O)NCCc3ccc(O)cc3)[C@H](C)O2)[C@H](C)[C@@H](O[C@@H]2O[C@H](C)C[C@H](N(C)C)[C@H]2O)[C@](C)(OC)C[C@@H](C)C(=O)[C@H](C)[C@@H](O)[C@]1(C)O", "values": [{"measurement": "MIC", "setting": "Streptococcus pneumoniae [1]", "result": 0.03, "unit": "µg/mL"}, {"measurement": "MIC", "setting": "Streptococcus pneumoniae [2]", "result": 0.25, "unit": "µg/mL"}, {"measurement": "MIC", "setting": "Streptococcus pneumoniae [3]", "result": 0.5, "unit": "µg/mL"}, {"measurement": "MIC", "setting": "Streptococcus pneumoniae [4]", "result": 1, "unit": "µg/mL"}, {"measurement": "MIC", "setting": "Staphylococcus aureus [5]", "result": 0.5, "unit": "µg/mL"}, {"measurement": "MIC", "setting": "Staphylococcus aureus [6]", "result": 9, "unit": "µg/mL"}, {"measurement": "MIC", "setting": "Streptococcus pyogenes [7]", "result": 0.5, "unit": "µg/mL"}, {"measurement": "MIC", "setting": "Streptococcus pyogenes [8]", "result": 8, "unit": "µg/mL"}]}, {"smiles": "CC[C@H]1OC(=O)[C@H](C)[C@@H](O[C@H]2C[C@@](C)(OC)[C@@H](OC(=O)NCCCC(=O)NCCc3ccccc3Cl)[C@H](C)O2)[C@H](C)[C@@H](O[C@@H]2O[C@H](C)C[C@H](N(C)C)[C@H]2O)[C@](C)(OC)C[C@@H](C)C(=O)[C@H](C)[C@@H](O)[C@]1(C)O", "values": [{"measurement": "MIC", "setting": "Streptococcus pneumoniae [1]", "result": 0.03, "unit": "µg/mL"}, {"measurement": "MIC", "setting": "Streptococcus pneumoniae [2]", "result": 32, "unit": "µg/mL"}, {"measurement": "MIC", "setting": "Streptococcus pneumoniae [3]", "result": 1, "unit": "µg/mL"}, {"measurement": "MIC", "setting": "Streptococcus pneumoniae [4]", "result": 32, "unit": "µg/mL"}, {"measurement": "MIC", "setting": "Staphylococcus aureus [5]", "result": 0.25, "unit": "µg/mL"}, {"measurement": "MIC", "setting": "Staphylococcus aureus [6]", "result": 32, "unit": "µg/mL"}, {"measurement": "MIC", "setting": "Streptococcus pyogenes [7]", "result": 0.03, "unit": "µg/mL"}, {"measurement": "MIC", "setting": "Streptococcus pyogenes [8]", "result": 1, "unit": "µg/mL"}]}, {"smiles": "CCCNC(=O)O[C@H]1[C@H](C)O[C@@H](O[C@H]2[C@H](C)[C@@H](O[C@@H]3O[C@H](C)C[C@H](N(C)C)[C@H]3O)[C@](C)(OC)C[C@@H](C)C(=O)[C@H](C)[C@@H](O)[C@](C)(O)[C@@H](CC)OC(=O)[C@@H]2C)C[C@@]1(C)OC", "values": [{"measurement": "MIC", "setting": "Streptococcus pneumoniae [1]", "result": 0.25, "unit": "µg/mL"}, {"measurement": "MIC", "setting": "Streptococcus pneumoniae [2]", "result": 64, "unit": "µg/mL"}, {"measurement": "MIC", "setting": "Streptococcus pneumoniae [3]", "result": 2, "unit": "µg/mL"}, {"measurement": "MIC", "setting": "Streptococcus pneumoniae [4]", "result": 32, "unit": "µg/mL"}, {"measurement": "MIC", "setting": "Staphylococcus aureus [5]", "result": 0.25, "unit": "µg/mL"}, {"measurement": "MIC", "setting": "Staphylococcus aureus [6]", "result": 16, "unit": "µg/mL"}, {"measurement": "MIC", "setting": "Streptococcus pyogenes [7]", "result": 0.5, "unit": "µg/mL"}, {"measurement": "MIC", "setting": "Streptococcus pyogenes [8]", "result": 1, "unit": "µg/mL"}]}, {"smiles": "C=CCNC(=O)O[C@H]1[C@H](C)O[C@@H](O[C@H]2[C@H](C)[C@@H](O[C@@H]3O[C@H](C)C[C@H](N(C)C)[C@H]3O)[C@](C)(OC)C[C@@H](C)C(=O)[C@H](C)[C@@H](O)[C@](C)(O)[C@@H](CC)OC(=O)[C@@H]2C)C[C@@]1(C)OC", "values": [{"measurement": "MIC", "setting": "Streptococcus pneumoniae [1]", "result": 0.25, "unit": "µg/mL"}, {"measurement": "MIC", "setting": "Staphylococcus aureus [5]", "result": 0.25, "unit": "µg/mL"}, {"measurement": "MIC", "setting": "Staphylococcus aureus [6]", "result": 32, "unit": "µg/mL"}, {"measurement": "MIC", "setting": "Streptococcus pyogenes [7]", "result": 0.03, "unit": "µg/mL"}]}, {"smiles": "CCCCNC(=O)O[C@H]1[C@H](C)O[C@@H](O[C@H]2[C@H](C)[C@@H](O[C@@H]3O[C@H](C)C[C@H](N(C)C)[C@H]3O)[C@](C)(OC)C[C@@H](C)C(=O)[C@H](C)[C@@H](O)[C@](C)(O)[C@@H](CC)OC(=O)[C@@H]2C)C[C@@]1(C)OC", "values": [{"measurement": "MIC", "setting": "Streptococcus pneumoniae [1]", "result": 0.25, "unit": "µg/mL"}, {"measurement": "MIC", "setting": "Streptococcus pneumoniae [2]", "result": 64, "unit": "µg/mL"}, {"measurement": "MIC", "setting": "Streptococcus pneumoniae [3]", "result": 1, "unit": "µg/mL"}, {"measurement": "MIC", "setting": "Streptococcus pneumoniae [4]", "result": 64, "unit": "µg/mL"}, {"measurement": "MIC", "setting": "Staphylococcus aureus [5]", "result": 0.25, "unit": "µg/mL"}, {"measurement": "MIC", "setting": "Staphylococcus aureus [6]", "result": 8, "unit": "µg/mL"}, {"measurement": "MIC", "setting": "Streptococcus pyogenes [7]", "result": 0.25, "unit": "µg/mL"}, {"measurement": "MIC", "setting": "Streptococcus pyogenes [8]", "result": 4, "unit": "µg/mL"}]}, {"smiles": "CCCCCNC(=O)O[C@H]1[C@H](C)O[C@@H](O[C@H]2[C@H](C)[C@@H](O[C@@H]3O[C@H](C)C[C@H](N(C)C)[C@H]3O)[C@](C)(OC)C[C@@H](C)C(=O)[C@H](C)[C@@H](O)[C@](C)(O)[C@@H](CC)OC(=O)[C@@H]2C)C[C@@]1(C)OC", "values": [{"measurement": "MIC", "setting": "Streptococcus pneumoniae [1]", "result": 0.06, "unit": "µg/mL"}, {"measurement": "MIC", "setting": "Streptococcus pneumoniae [2]", "result": 32, "unit": "µg/mL"}, {"measurement": "MIC", "setting": "Streptococcus pneumoniae [3]", "result": 0.25, "unit": "µg/mL"}, {"measurement": "MIC", "setting": "Streptococcus pneumoniae [4]", "result": 128, "unit": "µg/mL"}, {"measurement": "MIC", "setting": "Staphylococcus aureus [5]", "result": 0.25, "unit": "µg/mL"}, {"measurement": "MIC", "setting": "Staphylococcus aureus [6]", "result": 16, "unit": "µg/mL"}, {"measurement": "MIC", "setting": "Streptococcus pyogenes [7]", "result": 0.03, "unit": "µg/mL"}, {"measurement": "MIC", "setting": "Streptococcus pyogenes [8]", "result": 0.12, "unit": "µg/mL"}]}, {"smiles": "CC[C@H]1OC(=O)[C@H](C)[C@@H](O[C@H]2C[C@@](C)(OC)[C@@H](OC(=O)NCCCC(=O)NC3CCCCC3)[C@H](C)O2)[C@H](C)[C@@H](O[C@@H]2O[C@H](C)C[C@H](N(C)C)[C@H]2O)[C@](C)(OC)C[C@@H](C)C(=O)[C@H](C)[C@@H](O)[C@]1(C)O", "values": [{"measurement": "MIC", "setting": "Streptococcus pneumoniae [1]", "result": 0.03, "unit": "µg/mL"}, {"measurement": "MIC", "setting": "Streptococcus pneumoniae [2]", "result": 32, "unit": "µg/mL"}, {"measurement": "MIC", "setting": "Streptococcus pneumoniae [3]", "result": 2, "unit": "µg/mL"}, {"measurement": "MIC", "setting": "Streptococcus pneumoniae [4]", "result": 64, "unit": "µg/mL"}, {"measurement": "MIC", "setting": "Staphylococcus aureus [5]", "result": 0.5, "unit": "µg/mL"}, {"measurement": "MIC", "setting": "Staphylococcus aureus [6]", "result": 8, "unit": "µg/mL"}, {"measurement": "MIC", "setting": "Streptococcus pyogenes [7]", "result": 0.25, "unit": "µg/mL"}, {"measurement": "MIC", "setting": "Streptococcus pyogenes [8]", "result": 8, "unit": "µg/mL"}]}, {"smiles": "CC[C@H]1OC(=O)[C@H](C)[C@@H](O[C@H]2C[C@@](C)(OC)[C@@H](OC(=O)NCCCC(=O)NC(C)C)[C@H](C)O2)[C@H](C)[C@@H](O[C@@H]2O[C@H](C)C[C@H](N(C)C)[C@H]2O)[C@](C)(OC)C[C@@H](C)C(=O)[C@H](C)[C@@H](O)[C@]1(C)O", "values": [{"measurement": "MIC", "setting": "Streptococcus pneumoniae [1]", "result": 0.03, "unit": "µg/mL"}, {"measurement": "MIC", "setting": "Streptococcus pneumoniae [2]", "result": 128, "unit": "µg/mL"}, {"measurement": "MIC", "setting": "Streptococcus pneumoniae [3]", "result": 8, "unit": "µg/mL"}, {"measurement": "MIC", "setting": "Streptococcus pneumoniae [4]", "result": 128, "unit": "µg/mL"}, {"measurement": "MIC", "setting": "Staphylococcus aureus [5]", "result": 0.25, "unit": "µg/mL"}, {"measurement": "MIC", "setting": "Staphylococcus aureus [6]", "result": 8, "unit": "µg/mL"}, {"measurement": "MIC", "setting": "Streptococcus pyogenes [7]", "result": 0.5, "unit": "µg/mL"}, {"measurement": "MIC", "setting": "Streptococcus pyogenes [8]", "result": 16, "unit": "µg/mL"}]}, {"smiles": "C=CCNC(=O)CCCNC(=O)O[C@H]1[C@H](C)O[C@@H](O[C@H]2[C@H](C)[C@@H](O[C@@H]3O[C@H](C)C[C@H](N(C)C)[C@H]3O)[C@](C)(OC)C[C@@H](C)C(=O)[C@H](C)[C@@H](O)[C@](C)(O)[C@@H](CC)OC(=O)[C@@H]2C)C[C@@]1(C)OC", "values": [{"measurement": "MIC", "setting": "Streptococcus pneumoniae [1]", "result": 0.03, "unit": "µg/mL"}, {"measurement": "MIC", "setting": "Staphylococcus aureus [5]", "result": 0.25, "unit": "µg/mL"}, {"measurement": "MIC", "setting": "Staphylococcus aureus [6]", "result": 8, "unit": "µg/mL"}, {"measurement": "MIC", "setting": "Streptococcus pyogenes [7]", "result": 0.03, "unit": "µg/mL"}]}, {"smiles": "C=CCNC(=O)CCCCCNC(=O)O[C@H]1[C@H](C)O[C@@H](O[C@H]2[C@H](C)[C@@H](O[C@@H]3O[C@H](C)C[C@H](N(C)C)[C@H]3O)[C@](C)(OC)C[C@@H](C)C(=O)[C@H](C)[C@@H](O)[C@](C)(O)[C@@H](CC)OC(=O)[C@@H]2C)C[C@@]1(C)OC", "values": [{"measurement": "MIC", "setting": "Streptococcus pneumoniae [1]", "result": 0.03, "unit": "µg/mL"}, {"measurement": "MIC", "setting": "Staphylococcus aureus [5]", "result": 0.25, "unit": "µg/mL"}, {"measurement": "MIC", "setting": "Staphylococcus aureus [6]", "result": 16, "unit": "µg/mL"}, {"measurement": "MIC", "setting": "Streptococcus pyogenes [7]", "result": 0.5, "unit": "µg/mL"}]}]}
